Experimental data reported in patent US11027022B2, “Conjugates and conjugating reagents” (priority 2016, dated 2021).

Tested on: Karpas-299 cells (T-anaplastic large cell lymphoma, ALCL)
Test: Karpas-299 mouse xenograft study
Assay type: in vivo, CB17-SCID mice
Conditions: single i.v. injection, 1 mg/kg, groups of eight mice
Method: Healthy female CB17-SCID mice (CBySmn.CB17-Prkdcscida, Charles River Laboratories) with an average body weight of 17.5 g were used for cell inoculation (Day 0). 24 to 72 h prior to tumour cell injection, the mice were […] (1.44 Gy, ^60Co). The animals were maintained in SPF health status according to the FELASA guidelines in housing rooms under controlled environmental conditions.
Tumours were induced by subcutaneous injection of 10^7 Karpas-299 cells (T-anaplastic large cell lymphoma, ALCL) in 200 μL of RPMI 1640 into the right flank. Tumours were measured twice a week with callipers, and the volume was estimated using the formula: […]
Fourteen days after tumour implantation (Day 14), the animals were randomised into groups of eight mice using Vivo Manager® software (233 mm^3 mean tumour volume) and treatment was initiated. The animals from the vehicle group received a single intravenous (i.v.) injection of PBS. The treated groups were dosed with a single i.v. injection of ADC at either 0.5 mg/kg or 1 mg/kg.
Treatment tolerability was assessed by bi-weekly body weight measurement and daily observation for clinical signs of treatment-related side effects. Mice were euthanized when a humane endpoint was reached (e.g. 1,600 mm^3 tumour volume) or after a maximum of 6 weeks post-dosing.

Adcetris®: commercially-available Adcetris® conjugate, comparative to the brentuximab-drug conjugates [reference compound]
complete responses (total reduction of tumour volume to zero): 2 animals
mean tumour volume (result in words): increase in mean tumour volume
